In brackets after ≈: the same amount, converted by molar mass. Where two headings read alike, the source gives them in different places.
Legend:
Experiment in all cases: In vitro antibacterial spectrum, agar plate dilution method (MIC)
Assay type in all cases: cell-based
Citrobacter diversus = settings: Citrobacter koseri; Citrobacter diversus K 82-24; Mueller-Hinton agar, 10^4 CFU, 18 hours at 35° C
Procedure: (§1) The in vitro antimicrobial spectrum of the compounds of the invention were determined by the agar plate dilution method with Mueller-Hinton agar and an inoculum of each test organism of approximately 10^4 colony forming units delivered by the steers replicating device. The minimal inhibitory concentration (MIC) in mcg/ml is defined as the lowest concentration of test compound that inhibited visible growth after 18 hours incubation at 35° C.

Enterobacter cloacae = settings: 18 h, 10^4 CFU, 18 hours at 35° C
Procedure: as §1

Escherichia coli = settings: 10^4 CFU, 18 hours at 35° C
Procedure: as §1

Klebsiella nneumoniae = settings: Mueller-Hinton agar, 10^4 CFU, 18 hours at 35° C
Procedure: as §1

Morganella morganii = settings: 18 h, 10^4 CFU, 18 hours at 35° C
Procedure: as §1

Proteus rettgeri = settings: Providencia rettgeri; Proteus rettgeri IO 83-21; Mueller-Hinton agar, 10^4 CFU, 18 hours at 35° C
Procedure: as §1

Providencia stuartii = Providencia stuartii CMC 83-3; Mueller-Hinton agar, 10^4 CFU, 18 hours at 35° C
Procedure: as §1

Pseudomonas aeruginosa = settings: Mueller-Hinton agar, 10^4 CFU, 18 hours at 35° C
Procedure: as §1

Serratia marcescens = settings: 18 h, 10^4 CFU, 18 hours at 35° C
Procedure: as §1

Staphylococcus aureus = settings: Mueller-Hinton agar, 10^4 CFU, 18 hours at 35° C
Procedure: as §1

Streptococcus faecalis = settings: Mueller-Hinton agar, 10^4 CFU, 18 hours at 35° C
Procedure: as §1

SMILES: CN1CCN(c2cc3c(cc2F)c(=O)c(C(=O)O)c2ccccn23)CC1 [Example 6, 8-Fluoro-9-(4-methyl-1-piperazinyl)-6-oxo-6H-benzo[c]quinolizine-5-carboxylic acid]
- MIC (Citrobacter diversus): 4 µg/mL (≈ 11.3 µM)
- MIC (Enterobacter cloacae; Enterobacter cloacae K 84-10, Mueller-Hinton agar): 2 µg/mL (≈ 5.63 µM)
- MIC (Enterobacter cloacae; Enterobacter cloacae MOR 84-30, Mueller-Hinton agar): 16 µg/mL (≈ 45 µM)
- MIC (Enterobacter cloacae; Enterobacter cloacae VGH 84-39, Mueller-Hinton agar): 2 µg/mL (≈ 5.63 µM)
- MIC (Escherichia coli; 18 h, Escherichia coli CMC 84-50, Mueller-Hinton agar): 2 µg/mL (≈ 5.63 µM)
- MIC (Escherichia coli; 18 h, Escherichia coli D 21, Mueller-Hinton agar): 4 µg/mL (≈ 11.3 µM)
- MIC (Escherichia coli; 18 h, Escherichia coli D 22, Mueller-Hinton agar): 2 µg/mL (≈ 5.63 µM)
- MIC (Escherichia coli; 18 h, Escherichia coli MOR 84-20, Mueller-Hinton agar): 2 µg/mL (≈ 5.63 µM)
- MIC (Escherichia coli; 18 h, Escherichia coli VGH 84-19, Mueller-Hinton agar): 4 µg/mL (≈ 11.3 µM)
- MIC (Escherichia coli; ATCC25922, 18 h, Escherichia coli ATCC 25922, Mueller-Hinton agar): 4 µg/mL (≈ 11.3 µM)
- MIC (Klebsiella nneumoniae; Klebsiella nneumoniae IO 83-5): 8 µg/mL (≈ 22.5 µM)
- MIC (Klebsiella nneumoniae; Klebsiella nneumoniae MOR 84-24, read-out: MIC): 8 µg/mL (≈ 22.5 µM)
- MIC (Klebsiella nneumoniae; Klebsiella oneumoniae CMC 84-31): 8 µg/mL (≈ 22.5 µM)
- MIC (Morganella morganii; Morganella morganii CMC 84-38, Mueller-Hinton agar): 0.5 µg/mL (≈ 1.41 µM)
- MIC (Morganella morganii; Morganella morganii VGH 84-12, Mueller-Hinton agar): 4 µg/mL (≈ 11.3 µM)
- MIC (Morganella morganii; Moroanella morganii MOR 84-45, Mueller-Hinton agar): 0.5 µg/mL (≈ 1.41 µM)
- MIC (Proteus rettgeri): 1 µg/mL (≈ 2.81 µM)
- MIC (Providencia stuartii): > 16 µg/mL
- MIC (Pseudomonas aeruginosa; Pseudomonas aeruginosa CMC 83-20): > 16 µg/mL
- MIC (Pseudomonas aeruginosa; Pseudomonas aeruginosa K 84-16, read-out: MIC): > 16 µg/mL
- MIC (Pseudomonas aeruginosa; Pseudomonas aeruginosa VGH 84-3): > 16 µg/mL
- MIC (Serratia marcescens; Serratia marcescens CMC 83-74, Mueller-Hinton agar): > 16 µg/mL
- MIC (Serratia marcescens; Serratia marcescens IO 83-63, Mueller-Hinton agar): 4 µg/mL (≈ 11.3 µM)
- MIC (Serratia marcescens; Serratia marcescens MOR 84-41, Mueller-Hinton agar): 2 µg/mL (≈ 5.63 µM)
- MIC (Staphylococcus aureus; ATCC25913, Staphylococcus aureus ATCC 25913, read-out: MIC): > 16 µg/mL
- MIC (Staphylococcus aureus; Staphylococcus aureus CMC 83-131): > 16 µg/mL
- MIC (Staphylococcus aureus; Staphylococcus aureus K 82-26): > 16 µg/mL
- MIC (Staphylococcus aureus; Staphylococcus aureus VGH 84-47, read-out: MIC): > 16 µg/mL
- MIC (Streptococcus faecalis; Enterococcus faecalis, Streptococcus faecalis VCI 85-30, read-out: MIC): > 16 µg/mL
- MIC (Streptococcus faecalis; Streptococcus faecalis CMC 83-120): > 16 µg/mL
- MIC (Streptococcus faecalis; Streptococcus faecalis VGH 84-69): > 16 µg/mL
